From ChEMBL document CHEMBL5137011, “Semisynthetic pleuromutilin antimicrobials with therapeutic potential against methicillin-resistant Staphylococcus aureus by targeting 50S ribosomal subunit” (Eur J Med Chem, 2022)
Values after ≈ are worked out from the molar mass of the structure shown.

Tests used:
[1] = system: Staphylococcus aureus; experiment: Antibacterial activity against methicillin-resistant Staphylococcus aureus ATCC 43300 assessed as inhibition of bacterial growth incubated for 16 hrs by CLSI based broth microdilution method; assay type: functional
[2] = system: Staphylococcus aureus; experiment: Antibacterial activity against Staphylococcus aureus ATCC 29213 assessed as inhibition of bacterial growth incubated for 16 hrs by CLSI based broth microdilution method; assay type: functional
[3] = system: Staphylococcus aureus; experiment: Antibacterial activity against Staphylococcus aureus AD3 assessed as inhibition of bacterial growth incubated for 16 hrs by CLSI based broth microdilution method; assay type: functional
[4] = system: Staphylococcus aureus; experiment: Antibacterial activity against Staphylococcus aureus 144 assessed as inhibition of bacterial growth incubated for 16 hrs by CLSI based broth microdilution method; assay type: functional
[5] = system: Staphylococcus aureus; experiment: Antibacterial activity against Staphylococcus aureus SA17 assessed as inhibition of bacterial growth incubated for 16 hrs by CLSI based broth microdilution method; assay type: functional
[6] = system: Staphylococcus aureus; experiment: Antibacterial activity against methicillin-resistant Staphylococcus aureus ATCC 43300 assessed as log reduction in colony forming unit at 4 times MIC measured after 3 hrs by time kill assay; assay type: functional
[7] = system: Staphylococcus aureus; experiment: Antibacterial activity against methicillin-resistant Staphylococcus aureus ATCC 43300 assessed as log reduction in colony forming unit at 4 times MIC measured after 24 hrs by time kill assay; assay type: functional
[8] = system: RAW264.7; experiment: Cytotoxicity against mouse RAW264.7 cells assessed as reduction in cell viability at 8 ug/ml incubated for 16 hrs by MTT assay; assay type: toxicity, cell-based; details: raw264.7, 16 h, dose 8 µg/ml
[9] = system: 16HBE14o-; experiment: Cytotoxicity against human 16HBE14o- cells assessed as reduction in cell viability at 8 ug/ml incubated for 16 hrs by MTT assay; assay type: toxicity, cell-based; details: dose 8 µg/ml
[10] = system: 16HBE14o-; experiment: Cytotoxicity against human 16HBE14o- cells assessed as reduction in cell viability at 8 ug/ml incubated for 16 hrs by MTT assay relative to control; assay type: toxicity, cell-based; details: at 8 µg/mL

Question: For `C=C[C@]1(C)C[C@@H](OC(=O)CSc2nnc(-c3cccc(Cl)c3)[nH]2)[C@]2(C)[C@H](C)CC[C@]3(CCC(=O)[C@H]32)[C@@H](C)[C@@H]1O`, which MIC [1] is on record?
Answer: The MIC was 0.0625 µg/mL (≈ 0.109 µM).

Question: What about the MIC [2] of the same compound?
Answer: The MIC was 0.125 µg/mL (≈ 0.218 µM).

Question: What about the MIC [3] of the same compound?
Answer: The MIC was 0.125 µg/mL (≈ 0.218 µM).

Question: What about the MIC [4] of the same compound?
Answer: Its MIC is 0.25 µg/mL (≈ 0.437 µM).

Question: What about the MIC [5] of the same compound?
Answer: The MIC was 0.125 µg/mL (≈ 0.218 µM).

Question: And the Activity [6]?
Answer: Its Activity is -1 log10CFU/ml.

Question: And the Activity [7]?
Answer: The Activity was -9.23 log10CFU/ml.

Question: What about the Activity [8] of the same compound?
Answer: Its Activity is “Non-Toxic”.

Question: What about the Activity [9] of the same compound?
Answer: The Activity was “Non-Toxic”.

Question: With `C=C[C@]1(C)C[C@@H](OC(=O)CSc2nnc(-c3ccc(Cl)cc3)[nH]2)[C@]2(C)[C@H](C)CC[C@]3(CCC(=O)[C@H]32)[C@@H](C)[C@@H]1O` as the compound, how does the MIC [1] read?
Answer: The MIC was 0.125 µg/mL (≈ 0.218 µM).

Question: And the MIC [2]?
Answer: Its MIC is 0.0625 µg/mL (≈ 0.109 µM).

Question: What about the MIC [3] of the same compound?
Answer: The MIC was 0.125 µg/mL (≈ 0.218 µM).

Question: What about the MIC [4] of the same compound?
Answer: Its MIC is 1 µg/mL (≈ 1.75 µM).

Question: What about the MIC [5] of the same compound?
Answer: Its MIC is 0.5 µg/mL (≈ 0.874 µM).

Question: What about the Activity [8] of the same compound?
Answer: The Activity was “Non-Toxic”.

Question: And the Activity [9]?
Answer: Its Activity is “Non-Toxic”.

Question: With `C=C[C@]1(C)C[C@@H](OC(=O)CSc2nnc(-c3ccc(C)cc3)[nH]2)[C@]2(C)[C@H](C)CC[C@]3(CCC(=O)[C@H]32)[C@@H](C)[C@@H]1O` as the compound, how does the MIC [1] read?
Answer: Its MIC is 0.125 µg/mL (≈ 0.227 µM).

Question: And the MIC [2]?
Answer: Its MIC is 0.125 µg/mL (≈ 0.227 µM).

Question: And the MIC [3]?
Answer: Its MIC is 0.0625 µg/mL (≈ 0.113 µM).

Question: And the MIC [4]?
Answer: Its MIC is 1 µg/mL (≈ 1.81 µM).

Question: What about the MIC [5] of the same compound?
Answer: The MIC was 0.5 µg/mL (≈ 0.906 µM).

Question: And the Activity [8]?
Answer: The Activity was “Non-Toxic”.

Question: What about the Activity [9] of the same compound?
Answer: Its Activity is “Non-Toxic”.

Question: Which MIC [1] does the source give for `C=C[C@]1(C)C[C@@H](OC(=O)CSc2nnc(-c3cccc(C)c3)[nH]2)[C@]2(C)[C@H](C)CC[C@]3(CCC(=O)[C@H]32)[C@@H](C)[C@@H]1O` here?
Answer: The MIC was 0.25 µg/mL (≈ 0.453 µM).

Question: What about the MIC [2] of the same compound?
Answer: The MIC was 0.25 µg/mL (≈ 0.453 µM).

Question: What about the MIC [3] of the same compound?
Answer: The MIC was 0.0625 µg/mL (≈ 0.113 µM).

Question: And the MIC [4]?
Answer: Its MIC is 4 µg/mL (≈ 7.25 µM).

Question: And the MIC [5]?
Answer: The MIC was 1 µg/mL (≈ 1.81 µM).

Question: What about the Activity [8] of the same compound?
Answer: Its Activity is “Non-Toxic”.

Question: What about the Activity [9] of the same compound?
Answer: Its Activity is “Non-Toxic”.

Question: `C=C[C@]1(C)C[C@@H](OC(=O)CSc2nnc(-c3ccccc3C(F)(F)F)[nH]2)[C@]2(C)[C@H](C)CC[C@]3(CCC(=O)[C@H]32)[C@@H](C)[C@@H]1O` was tested. Which MIC [1] did it give?
Answer: Its MIC is 0.25 µg/mL (≈ 0.413 µM).

Question: What about the MIC [2] of the same compound?
Answer: The MIC was 0.5 µg/mL (≈ 0.825 µM).

Question: And the MIC [3]?
Answer: The MIC was 0.25 µg/mL (≈ 0.413 µM).

Question: And the MIC [4]?
Answer: The MIC was 8 µg/mL (≈ 13.2 µM).

Question: And the MIC [5]?
Answer: Its MIC is 4 µg/mL (≈ 6.6 µM).

Question: And the Activity [8]?
Answer: Its Activity is “Non-Toxic”.

Question: And the Activity [9]?
Answer: The Activity was “Non-Toxic”.

Question: How did the MIC [1] turn out when `C=C[C@]1(C)C[C@@H](OC(=O)CSc2nnc(-c3cccc([N+](=O)[O-])c3)[nH]2)[C@]2(C)[C@H](C)CC[C@]3(CCC(=O)[C@H]32)[C@@H](C)[C@@H]1O` was run?
Answer: Its MIC is 0.125 µg/mL (≈ 0.215 µM).

Question: What about the MIC [2] of the same compound?
Answer: Its MIC is 0.25 µg/mL (≈ 0.429 µM).

Question: What about the MIC [3] of the same compound?
Answer: Its MIC is 0.0625 µg/mL (≈ 0.107 µM).

Question: What about the MIC [4] of the same compound?
Answer: The MIC was 2 µg/mL (≈ 3.43 µM).

Question: What about the MIC [5] of the same compound?
Answer: The MIC was 0.5 µg/mL (≈ 0.858 µM).

Question: And the Activity [8]?
Answer: The Activity was “Non-Toxic”.

Question: And the Activity [9]?
Answer: Its Activity is “Non-Toxic”.

Question: For `C=C[C@]1(C)C[C@@H](OC(=O)CSc2nnc(-c3cccc(F)c3)[nH]2)[C@]2(C)[C@H](C)CC[C@]3(CCC(=O)[C@H]32)[C@@H](C)[C@@H]1O`, which MIC [1] is on record?
Answer: Its MIC is 0.125 µg/mL (≈ 0.225 µM).

Question: And the MIC [2]?
Answer: The MIC was 0.125 µg/mL (≈ 0.225 µM).

Question: What about the MIC [3] of the same compound?
Answer: The MIC was 0.0625 µg/mL (≈ 0.112 µM).

Question: What about the MIC [4] of the same compound?
Answer: Its MIC is 1 µg/mL (≈ 1.8 µM).

Question: What about the MIC [5] of the same compound?
Answer: The MIC was 0.5 µg/mL (≈ 0.9 µM).

Question: And the Activity [8]?
Answer: The Activity was “Non-Toxic”.

Question: And the Activity [9]?
Answer: Its Activity is “Non-Toxic”.

Question: With `C=C[C@]1(C)C[C@@H](OC(=O)CSc2nnc(-c3ccc(C(F)(F)F)cc3)[nH]2)[C@]2(C)[C@H](C)CC[C@]3(CCC(=O)[C@H]32)[C@@H](C)[C@@H]1O` as the compound, how does the MIC [1] read?
Answer: The MIC was 0.5 µg/mL (≈ 0.825 µM).

Question: And the MIC [2]?
Answer: Its MIC is 2 µg/mL (≈ 3.3 µM).

Question: And the MIC [3]?
Answer: Its MIC is 0.25 µg/mL (≈ 0.413 µM).

Question: And the MIC [4]?
Answer: Its MIC is greater than 32 µg/mL.

Question: And the MIC [5]?
Answer: Its MIC is greater than 32 µg/mL.

Question: And the Activity [8]?
Answer: Its Activity is “Non-Toxic”.

Question: What about the Activity [10] of the same compound?
Answer: Its Activity is greater than 50%.

Question: Which results are given for `C=C[C@]1(C)C[C@@H](OC(=O)CSc2nnc(-c3ccc([N+](=O)[O-])cc3)[nH]2)[C@]2(C)[C@H](C)CC[C@]3(CCC(=O)[C@H]32)[C@@H](C)[C@@H]1O`?
Answer: MIC [1]: 0.125 µg/mL (≈ 0.215 µM); MIC [2]: 0.25 µg/mL (≈ 0.429 µM); MIC [3]: 0.0625 µg/mL (≈ 0.107 µM); MIC [4]: 2 µg/mL (≈ 3.43 µM); MIC [5]: 0.5 µg/mL (≈ 0.858 µM); Activity [8]: Non-Toxic; Activity [9]: Non-Toxic
